Data set [1] has as its target T1, Chymase (Homo sapiens) (UniProt P23946).
T1 sequence (whole entry): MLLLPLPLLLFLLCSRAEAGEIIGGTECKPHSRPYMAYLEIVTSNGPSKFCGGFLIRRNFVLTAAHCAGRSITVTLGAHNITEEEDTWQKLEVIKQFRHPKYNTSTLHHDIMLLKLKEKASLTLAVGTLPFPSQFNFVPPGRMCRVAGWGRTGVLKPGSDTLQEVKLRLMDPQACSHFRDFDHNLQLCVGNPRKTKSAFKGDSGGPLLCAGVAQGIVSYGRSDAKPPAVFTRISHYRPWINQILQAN
As to the kind of experiment: Inhibitory activity against serine protease chymase was determined.

Data set [2] can be described thus: Percent remaining in human plasma after incubation for 60 min at 37 C. The conditions noted are these: read-out: Stability. Type of data set: ADME, cell-free.
Data set [3] addresses T1, Chymase (Homo sapiens). As to the kind of experiment: Inhibitory activity against serine protease chymase was determined at 1 uM.
A short description of data set [4]: Percent compound remaining in human plasma after incubation for 60 min at 37 C. Type of data set: ADME, cell-free. Conditions: read-out: Stability.
In a further data set the target is T2, Chymase (Homo sapiens, UniProt P23946).
T2 sequence (P23946 whole entry): T1 sequence (whole entry)
Put plainly: Inhibitory concentration against serine protease chymase was determined.

The record followed here is ChEMBL document CHEMBL1136416, “Identification of a stable chymase inhibitor using a pharmacophore-Based database search” (Bioorg Med Chem Lett, 2003).

Several values for one entry are separate records, joined by “and”; a condition that tells them apart may be missing. Equal values may be shown once.

Regarding `O=C1ON(S(=O)(=O)c2ccc3ccccc3c2)C(=O)/C1=C/c1ccc(F)cc1`, the Inhibitory activity at Chymase (Homo sapiens) [1] was determined as 608 µM.

Compound `O=c1n(S(=O)(=O)c2ccc3ccccc3c2)c2ccccc2n1S(=O)(=O)c1ccc2ccccc2c1` gave an Inhibitory activity at Chymase (Homo sapiens) [1] of 3.46 µM.

Broadly, the inhibition is the percentage by which the read-out fell short of the control. Turning to `CSc1[nH]nc(NC(=O)c2ccc(Cl)cc2)c1S(=O)(=O)c1ccc(Cl)cc1`, the remaining at 1 h in data set [2] came out at 6.4%. For the same compound, the inhibition on Chymase (Homo sapiens) [3] was 36.5% and > 30%.

`O=C1c2ccccc2C(=O)N1S(=O)(=O)c1ccc2ccccc2c1` gave an Inhibitory activity on Chymase (Homo sapiens) [1] of 176 µM.

Regarding `O=C1S/C(=C/c2ccc(O)cc2)C(=O)N1S(=O)(=O)c1ccc2ccccc2c1`, on Chymase (Homo sapiens) [1], the Inhibitory activity amounted to 0.691 µM.

`Cc1ccc(C(=O)Nc2nnc(SC(=O)c3ccc(C)cc3)s2)cc1`: the Inhibitory activity on Chymase (Homo sapiens) [1] was 48 µM.

Consider `COC(=O)C(c1ccc2ccccc2c1)N1C(=O)S/C(=C\c2ccc(C)o2)C1=O` (centres undefined), for which the Inhibitory activity at Chymase (Homo sapiens) [1] is 4.22 µM.

`O=C(Nc1nnc(Sc2nc3ccccc3s2)s1)c1ccc(Cl)cc1` showed an Inhibitory activity on Chymase (Homo sapiens) [1] of 0.308 µM.

In the case of `O=C1SC(Cc2ccc3ccccc3c2)C(=O)N1Cc1ccoc1` (centres undefined), the Inhibitory activity at Chymase (Homo sapiens) [1] was 273 µM.

`O=C(Nc1nnc(Sc2nc3ccccc3s2)s1)c1ccccc1`: the Inhibitory activity at Chymase (Homo sapiens) [1] is 1.34 µM.

In the case of `Cc1ccc(/C=C2\SCCN(C(=O)c3ccc4ccccc4c3)C2=O)o1`, the Inhibitory activity on Chymase (Homo sapiens) [1] came to 4.54 µM.

As for `O=C1ON(C(=O)c2ccc3ccccc3c2)C(=O)/C1=C/c1ccc(O)c(O)c1`, the Inhibitory activity at Chymase (Homo sapiens) [1] was 53 µM.

`O=C(Nc1nnc(SCc2nc3ccccc3s2)s1)c1ccc(Cl)cc1` showed an Inhibitory activity on Chymase (Homo sapiens) [1] of 27 µM.

For orientation: IC50 means the point on the concentration scale where inhibition reaches its midpoint. Higher therefore signals a need for much substance. Take `CCCS(=O)(=O)c1ccc(NS(=O)(=O)c2sc3ccc(Cl)cc3c2C)cc1`: the remaining at 1 h in data set [4] worked out at 100%. In addition, at Chymase, the half-inhibitory concentration (IC50) was found to be 0.909 µM. The same compound displayed an inhibition on Chymase (Homo sapiens) [3] of over 30%.

In the case of `O=C(Nc1nnc(Sc2nc3ccccc3s2)s1)C(Cl)(Cl)Cl`, at Chymase (Homo sapiens) [1], the Inhibitory activity is 14 µM.

As for `Cc1ccc(/C=C2\SC(=O)N(Cc3ccc4ccccc4c3)C2=O)o1`, the Inhibitory activity at Chymase (Homo sapiens) [1] stood at 190 µM.

Turning to `Cc1ccc(/C=C2\SC(=O)N(C(=O)c3cccc(-c4ccccc4)c3)C2=O)o1`, at Chymase (Homo sapiens) [1], the Inhibitory activity is 0.683 µM.

In the case of `O=C(Oc1ccccc1)N1C(=O)S/C(=C\c2ccco2)C1=O`, on Chymase (Homo sapiens) [1], the Inhibitory activity is 3.6 µM.

The compound `Cc1ccc(/C=C2\SC(C)(C)N(C(=O)c3ccc4ccccc4c3)C2=O)o1` yielded an Inhibitory activity on Chymase (Homo sapiens) [1] of 8.91 µM.

In turn, `O=C1S/C(=C\c2ccsc2)C(=O)N1C(=O)c1ccc2ccccc2c1` came in with an Inhibitory activity on Chymase (Homo sapiens) [1] of 0.081 µM.

As to `Cc1ccc(C(=O)Sc2nnc(SC(=O)c3ccc(C)cc3)s2)cc1`, on Chymase (Homo sapiens) [1], the Inhibitory activity stood at 3.24 µM.

Compound `Cc1ccc(-c2nnc(NC(=O)c3ccc4ccccc4c3)s2)o1` registered an Inhibitory activity on Chymase (Homo sapiens) [1] of 87 µM.

In turn, `Cc1ccc(C(=O)Nc2nnc(C(=O)c3ccccc3)s2)cc1` yielded an Inhibitory activity at Chymase (Homo sapiens) [1] of 75 µM.

For the compound `O=C(Oc1ccc(Cl)cc1)c1cnc(C2COc3ccccc3O2)s1` (centres undefined), the remaining at 1 h in data set [4] was determined as 11.8%. The inhibition is 17.8% against Chymase (Homo sapiens) [1] (concentration not given here) and over 30% on Chymase (Homo sapiens) [3].

On Chymase (Homo sapiens) [1], `Cc1ccc(/C=C2\SC(=O)N(CS(=O)(=O)c3ccc4ccccc4c3)C2=O)o1` came in with an Inhibitory activity of 24 µM.

`COC(=O)c1ccc(C(=O)n2cnc3cc4ccccc4cc3c2=O)cc1`: on Chymase (Homo sapiens) [1], the Inhibitory activity is 0.61 µM.

`Cc1ccc(/C=C2\SC(=O)N(C(=O)c3ccc4ccccc4c3)C2=O)o1`: the Inhibitory activity at Chymase (Homo sapiens) [1] is 0.097 µM.

Regarding `Clc1ccc(CNc2nnc(Sc3nc4ccccc4s3)s2)cc1`, at Chymase (Homo sapiens) [1], the Inhibitory activity was 321 µM.

Compound `Cc1ccc(/C=C2\SC(=O)N(CSc3ccc4ccccc4c3)C2=O)o1` came in with an Inhibitory activity at Chymase (Homo sapiens) [1] of 141 µM.
